“Also recorded” adds a separate entry of the source.
Assays:
[1] = tested on: MC38 colorectal carcinoma; experiment: Study-2: multi-lesion MC38 colorectal carcinoma, efficacy; assay type: in vivo, mice; conditions: intermittent iSHP-1 with αTLR, or αTLR and αPD-L1
Experimental: (§1) FIGS. 12A-12D depict that pulse-intermittent inhibition of SHP-1 (iSHP-1) combined with TLR agonists (αTLR) and/or anti-PD-L1 checkpoint inhibitor effectively treat multi-lesion MC38 colorectal carcinoma. FIG. 12A depicts the treatment scheme. Mice with bilateral MC38 tumors (s.c.) were treated for two days with TPI-1 and various combinations via i.p. or s.c. A 5-day intermittent period was given before the 2nd cycle of treatments to mice that had residue tumors. FIGS. 12B and 12C depict tumor control efficacies measured by tumor volume changes (FIG. 12B) and TME reprogramming, indicating increases in tumor killing immune populations while reduction of immunosuppression. FIG. 12D depicts acute adverse toxicity, measured by body weight, proteinuria, serum ALT level and splenomegaly.

KPC pancreatic cancer = experiment: Study-3: iSHP-1 with RT and αPD-L1, KPC pancreatic cancer; assay type: in vivo, mice; conditions: TPI-1 3 or 5 mg/kg i.p. every 3 days, right flank RT 8Gy-4Gy-2Gy, αPD-L1 100 μg
Experimental: (§2) FIGS. 13A-13E depict pulse-intermittent SHP-1 inhibition (iSHP-1) combination with RT and αPD-L1 treating pancreatic cancer and lung cancer. FIG. 13A depicts experimental schemes. […] Concomitantly, the tumor at the right flank was treated with 8Gy X-ray radiation (RT). After two days of intermittent period, mice on day 4 were treated with the 2nd cycle TPI-1 (i.p.) of the same dose while RT reduced to 4Gy applied to the right flank tumor. The 3rd cycle (day 7) iSHP-1 combination with RT reduced to 2Gy. Anti-PD-L1 Ab (100 μg, i.p.) was given a day following TPI-1 plus RT. FIG. 13B depicts luminescent image tracing KPC-luc and LLC-luc tumor changes post treatment. FIG. 13C depicts record of tumor volume changes and animal survival up to post-treatment 45 days.
(§3) Modalities & Dosing Strategy: i) iSHP-1—TPI-1, 3 or 5 mg/kg, i.p., 1× every 3 days. ii) Tumor focal RT: 8Gy-4Gy-2Gy, given to right flank simultaneously with iSHP-1. iii) αPD-L1: 100 μg, i.p., given a day after iSHP-1 plus RT

[2] = tested on: KPC pancreatic ductal adenocarcinoma; experiment: Study-4: late-stage, large KPC pancreatic cancer; assay type: in vivo, mice
Experimental: FIGS. 14A-14E depict that pulse-intermittent inhibition of SHP-1 (iSHP-1) combined with TLR agonists (αTLR) treating late-stage KPC pancreatic ductal adenocarcinoma. FIG. 14A depicts the treatment scheme. Mice with large KPC tumors were treated (i.p.) consecutively for three days with TPI-I plus TLR agonists (CpG, PolyIC and R848, each 50 μg). After the initial pulse treatment, an intermittent period of 9-day was given before the 2nd cycle of treatment of two days with TPI plus TLR agonists. FIG. 14B depicts the luminescent images of mice with KPC tumor during the course of treatment. FIG. 14C depicts tumor volume changes.
Murine models: Single large pancreatic ductal adenocarcinoma (KPC-luc) C57BL6 syngeneic
Treatments: SHP-1 inhibition (iSHP-1) combined with TLR agonists (αTLR)

[3] = Study-2: acute adverse toxicity; assay type: in vivo, mice; conditions: intermittent iSHP-1 therapies
Experimental: as §1

[4] = Toxicity of pulse-intermittent iSHP-1 in tumor-bearing mice; assay type: in vivo; conditions: three cycles of pulse-intermittent iSHP-1 with proinflammatory agents
Description: FIGS. 10A-10B depicts pulse-intermittent iSHP-1 design and treatment schemes. In preclinical tumor models, we have tested three pulsed treatment schemes, pulses-1, -2 and -3, with iSHP-1 given once, twice or three times consecutively (1× per day) at the beginning of each cycle, and an intermittent period of 2-9 days withholding iSHP-1 treatment between cycles. The combination modalities include, but are not limited to, TLR ligands, STING activator, RT, anti-PD-1/L1 immune checkpoint blockade (αPD-1/L1), inflammatory cytokines, chemotherapies and oncolytic viruses. These combination regimens were given together with SHP-1 inhibitor or following separate dosing schedules. Murine solid tumor models with a single tumor or multi-lesions (metastases) in syngeneic mice of different backgrounds were tested. These models were established by engrafting tumors in multiple locations, and iSHP-1 treatment began when a single tumor reaches ≥200 mm^3 in size or the total tumor burden ≥300 mm^3. […]
Throughout treatments, anti-tumoral efficacies (tumor volume changes and survival rates), adverse effects (body weight loss, proteinuria, anemia and clinical discomfort), gross organ toxicity and tissue inflammation due to toxicity, and the TME immune landscape changes were analyzed at different time points and at the terminal point. […]

[5] = tested on: PTP/SHP-1 activity in KPC tumor; experiment: PTP/SHP-1 activity in KPC tumor in vivo; parameters: species or system murine; conditions: with αTLR, cytokines, STING activator, RT, AZA or αPD-L1
Study-3: adverse effects = assay type: in vivo, mice; conditions: TPI-1 with RT and αPD-L1
Experimental: as §2, §3

[6] = tested on: MC38 colorectal carcinoma; experiment: αTLR-induced inflammation in MC38 tumor-bearing mice with or without TPI-1; assay type: in vivo, C57BL6 mice
Description: FIGS. 17A-17C depict inhibition of SHP-1 (iShp1) abrogates tumor-imposed immune suppression under pro-inflammatory challenges. FIG. 17A depicts neutrophil infiltration in different organs measured at various time point following αTLR challenge. FIG. 17B depicts neutrophil infiltration in tumor tissues in mice treated with αTLR plus TPI-1. FIG. 17C depicts the phenotype of intratumoral macrophages.
MC38 colorectal carcinoma was established (via subcutaneous administration) in syngeneic C57BL6 mice. After tumor sizes reached more than 200 mm^3, the tumor-bearing mice were induced systemic inflammatory condition by TLR agonists (αTLR, CpG/PolyIC/R848, each 25 μg) administrated via subcutaneous administration at the location distal from MC38 tumor. A group of mice were concurrently administrated with TPI-1 (1 mg/kg) via subcutaneous administration to achieve systemic SHP-1 inhibition.

O=C1C=CC(=O)C(c2cc(Cl)ccc2Cl)=C1 [TPI-1]
tumor regression, combination [1]: effectively regressed multiple lesions of MC38 colorectal cancer
tumor elimination incl. distal lesions (KPC pancreatic cancer): effectively eliminating or repressing KPC pancreatic cancer and LLC lung cancer along with distal lesions
anti-tumor immune cells ([2]; TPI-1 combined with αTLR, i.p.): bolstered anti-tumor immune cells such as CD8+ T cells, NK cells and neutrophils
eradication of late-stage tumors ([2]; TPI-1 combined with αTLR, i.p.): effectively eradiated late-stage, large KPC pancreatic cancers
intratumoral immunosuppressive populations ([2]; TPI-1 with TLR agonists, day 4): reduction of intratumoral immunosuppressive populations including macrophages (MØ) and MDSC
acute adverse toxicity [3]: did not incur acute adverse toxicity
organ damage, anemia, splenomegaly [4]: did not exhibit serious lung or kidney damage, anemia or splenomegaly
treatment-induced PTP/SHP-1 activity abated [5]: abated
lung inflammation (Study-3: adverse effects): nor did it incur lung inflammation
splenomegaly, body weight loss, anemia (Study-3: adverse effects): did not cause splenomegaly, body weight loss or anemia
TNFα and IL12 expression of intratumoral macrophages ([6]; TPI-1 1 mg/kg s.c. with αTLR): increased TNFα and IL12 expression
neutrophil infiltration in tumor ([6]; TPI-1 1 mg/kg s.c. with αTLR (CpG/PolyIC/R848, each 25 μg), 1 mg/kg): enabled neutrophil infiltration upon αTLR; also recorded: increased neutrophil infiltration in tumor tissues
